Measurements reported in publication PMC6176321, “Efficient Synthesis of Glutamate Peptide-Estradiol Conjugate for Imaging Estrogen Receptor-Positive Diseases” (BioMed Research International, 2018).
Ends that are not written are not given here.

Columns and labels:
[1] = test system: SK-BR-3 (ER-) breast cancer cells; assay: In vitro cellular uptake assay (sensitivity); assay type: cell-based; details: 50,000 cells/well, 4 uCi/80uL/well, 4ug/well, average of three measurements
Experimental: (§1) In vitro cellular uptake studies of ^68Ga-GAP-EDL in breast tumor cells were performed. Breast cancer cell lines with high (MCF7; ER+) and low (SK-BR-3; ER-) estrogen receptor densities were used to determine the sensitivity and specificity for the cellular uptake assay. Briefly, for sensitivity assay, breast tumor cells (50,000 cells/well, 12 wells) were added with ^68GaCl3, ^68Ga-GAP, and ^68Ga-GAP-EDL (4 uCi/80uL/well, 4ug/well). The cells were incubated for 0.5-2 hrs. […] After incubation, the supernatant was collected. The cells were washed twice with ice cold PBS (1 ml) and trypsin EDTA (0.1 ml). After 2 min, the cells were collected. The wells were washed twice with cold PBS (0.5ml). The total volume of cell supernatant and the total volume containing cells were transferred to test tube to count the activity separately. Each piece of data represents an average of three measurements. Percentage of uptake (%)=cell activity/(cell supernatant+ cell activity)∗100% was calculated.

[2] = test system: MCF7 (ER+) breast cancer cells; assay: In vitro cellular uptake assay (sensitivity); assay type: cell-based; details: 50,000 cells/well, 4 uCi/80uL/well, 4ug/well, average of three measurements
Experimental: as §1

[3] = Micro-PET/CT imaging, tumor-to-muscle count density ratio; design: species or system mice; details: mouse, in vivo, 0.14 mg per 100uCi (0.2 mL) per mouse, 0.14mg per 100μCi, iv, n=2 per compound
Experimental: For PET imaging studies, athymic nude mice (n=2 per compound) inoculated with MCF-7 cells (s.c. 10^6 cells/mouse) at the left hind legs. When tumor reached 0.7cm, the tumor-bearing mice were anesthetized with 2% isoflurane on prone position. ^68Ga chloride (5mCi) was obtained by eluting a ^68Ge/^68Ga generator (20mCi size from Eckert Ziegler, Germany) with HCL (0.1N, 1.5 mL). Labeling GAP (1 mg) and GAP-EDL (1mg) was achieved by dissolving both compounds in sodium acetate (0.4 mL, 0.1N, pH 5.4), followed by adding ^68Ga chloride (1mCi, 0.3mL). Both compounds were sat at 37°C for 20 min. For animal imaging studies, the concentrations were diluted to 1.5mL/mg by adding saline (0.9%). Each mouse was administered with ^68Ga-GAP and ^68Ga-GAP-EDL (0.14mg per 100μCi, 0.2 mL, iv). ^68Ga-GAP and ^68Ga-GAP-EDL imaging studies were performed with a Siemens Inveon micro-PET/CT scanner (Siemens Medical Systems, Hoffman Estates, IL). Three serial 30-minute trans-axial PET images were obtained. All corrections for attenuation, scatter, and dead time were applied to generate quantifiable images. Regions of interests were then drawn on the tumor tissue and muscle regions and time activity curves were generated, the counts per pixel were used to determine tumor tissue-to-muscle tissue count density ratios.

| Compound | Percentage of uptake ([1]; SK-BR-3, 30min incubation) | Percentage of uptake ([1]; SK-BR-3, 1h incubation) | Percentage of uptake ([1]; SK-BR-3, 2h incubation) | Percentage of uptake ([2]; MCF-7, 30min incubation) | Percentage of uptake ([2]; MCF-7, 1h incubation) | Percentage of uptake ([2]; MCF-7, 2h incubation) | tissue to tissue ratio at 0.5 h ([3]; 30 min) | tissue to tissue ratio at 1 h ([3]; 60 min) | tissue to tissue ratio at 1.5 h ([3]; 90 min) |
| --- | --- | --- | --- | --- | --- | --- | --- | --- | --- |
| [Cl][68Ga]([Cl])[Cl] [^68GaCl3] | 1.74±0.21% | 1.80±0.20% | 2.21±0.11% | 1.35±0.35% | 1.79±0.28% | 1.63±0.33% |  |  |  |
| EEEEEE [^68Ga-GAP, metal not drawn] | 1.84±0.27% | 3.11±1.29% | 2.45±0.21% | 2.20±0.73% | 3.20±1.17% | 2.43±0.71% | 1.1 ± 0.02 | 1.2 ± 0.01 | 1.2 ± 0.02 |
